Results on 25 compounds are retold here after patent publication US8129398B2 (priority 2008, dated 2012).

The target in one assay is T1, HIV-integrase (Human immunodeficiency virus type 1 group M subtype B, UniProt P12497).
T1 construct: Recombinant integrase (0.26 ng) was incubated with the beads
Kind of assay: HIV-Integrase Inhibition Activity (SPA bead integration assay with P33 labeled target DNA). Format: biochemical. Conditions: for IC50: recombinant integrase, class symbols, read-out: in vitro activity; for Ki: representative compounds. In outline:
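Strand integration read as bead-proximity CPM after P33 target DNA (0.1 fmol) and inhibitor were added to washed integrase–substrate DNA complexes on SPA beads. Enzyme bound 90 min at 37° C; EDTA (10 mM final) terminated reaction; IC50 graded A/B/C.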

Assay [1] deals with recombinant NL-Rluc virus. Kind of assay: Inhibition of HIV replication (recombinant NL-Rluc virus, Renilla luciferase reporter). The assay is classed as cell-based. Background: In a reporter assay the amount or activity of a reporter protein is the signal.
The mark [2] stands for this setting: read-out: Antiviral activity, NL-Rluc virus, serum condition not specified (10% FBS, 15 mg/ml human serum albumin/10% FBS or 40% human serum/5% FBS), class symbols.

Like-named read-outs stand apart in the source and are kept apart here.

Turning to `CN(C)C(=O)C(=O)NC12CCC(Cn3c1nc(C(=O)NCc1ccc(F)cc1)c(O)c3=O)C2` (single isomer, unassigned) [Example 412, Ethanediamide, N′-[2-[[[(4-fluorophenyl)methyl]amino]carbonyl]-6,7,8,9-tetrahydro-3-hydroxy-4-oxo-7,11-methanopyrimido[1,2-a]azepin-10(4H)-yl]-N,N-dimethyl-], at HIV-integrase, the IC50 was < 0.01 µM. The EC50 in assay [1] (setting [2]) is < 0.01 µM.
Usually Ki stands for a dissociation constant, usually derived from enzyme kinetics or from competition with a known ligand. Regarding `O=C(NCc1ccc(F)cc1)c1nc2n(c(=O)c1O)CC1CC2CN(C(=O)OCc2ccccc2)C1` (stereo not shown) [Example 6, 7,11-Methano-4H-pyrimido[1,2-a][1,5]diazocine-9(6H)-carboxylic acid, 2-[[[(4-fluorophenyl)methyl]amino]carbonyl]-7,8,10,11-tetrahydro-3-hydroxy-4-oxo-, phenylmethyl ester], on HIV-integrase, the IC50 was 0.01 to 0.1 µM and the affinity, expressed as Ki, was 0.012 µM. The EC50 in assay [1] (Human immunodeficiency virus 1) stood at 0.141 µM.
Turning to `CS(=O)(=O)N1CCC[C@H]1C(=O)NC12CCC(CC1)Cn1c2nc(C(=O)NCc2ccc(F)cc2)c(O)c1=O` [Example 256, 7,10-Ethanopyrimido[1,2-a]azepine-2-carboxamide, N-[(4-fluorophenyl)methyl]-4,6,7,8,9,10-hexahydro-3-hydroxy-10-[[[(2S)-1-(methylsulfonyl)-2-pyrrolidinyl]carbonyl]amino]-4-oxo-], the IC50 at HIV-integrase is < 0.01 µM. Besides, the EC50 in assay [1] (setting [2]) was < 0.01 µM.
As for `O=C(NCc1ccc(F)cc1)c1nc2n(c(=O)c1O)CC1CCC2(NS(=O)(=O)c2ccccc2OC(F)(F)F)CC1` [Example 396], at HIV-integrase, the IC50 was > 0.1 µM and the Ki came out at 0.294 µM. Further, in assay [1] (Human immunodeficiency virus 1), the EC50 worked out at 0.455 µM.
On the same counts, the results for `Cc1cc(CNC(=O)c2nc3n(c(=O)c2O)CC2CCC3(NS(=O)(=O)CC3CC3)CC2)ccc1F` [Example 306, 7,10-Ethanopyrimido[1,2-a]azepine-2-carboxamide, 10-[[(cyclopropylmethyl)sulfonyl]amino]-N-[(4-fluoro-3-methylphenyl)methyl]-4,6,7,8,9,10-hexahydro-3-hydroxy-4-oxo-] are > 0.1 µM, 0.86 µM and 0.385 µM.
As to `CC(=O)N1CCC[C@H]1C(=O)NC12CCC(CC1)Cn1c2nc(C(=O)NCc2ccc(F)cc2)c(O)c1=O` [Example 255, 7,10-Ethanopyrimido[1,2-a]azepine-2-carboxamide, 10-[[[(2S)-1-acetyl-2-pyrrolidinyl]carbonyl]amino]-N-[(4-fluorophenyl)methyl]-4,6,7,8,9,10-hexahydro-3-hydroxy-4-oxo-], at HIV-integrase, the IC50 is < 0.01 µM. In assay [1] (setting [2]), the EC50 is < 0.01 µM.
As for `Cc1noc(C)c1S(=O)(=O)NC12CCC(CC1)Cn1c2nc(C(=O)NCc2ccc(F)cc2)c(O)c1=O` [Example 392], on HIV-integrase, the IC50 is > 0.1 µM and the affinity, expressed as Ki, was 0.467 µM. Moreover, the EC50 in assay [1] (Human immunodeficiency virus 1) turned out to be 0.618 µM.
In the same order, the values of `Cc1cc(CNC(=O)c2nc3n(c(=O)c2O)CC2CCC3(NC(=O)C3(C(F)(F)F)CC3)CC2)ccc1F` [Example 303, 7,10-Ethanopyrimido[1,2-a]azepine-2-carboxamide, N-[(4-fluoro-3-methylphenyl)methyl]-4,6,7,8,9,10-hexahydro-3-hydroxy-4-oxo-10-[[[1-(trifluoromethyl)cyclopropyl]carbonyl]amino]-] are > 0.1 µM, 0.18 µM and 0.192 µM.
On to `O=C(NC12CCC(CC1)Cn1c2nc(C(=O)NCc2ccc(F)cc2)c(O)c1=O)c1cccnc1` [Example 33, N-(4-Fluorobenzyl)-3-hydroxy-4-oxo-10-((3-pyridinylcarbonyl)amino)-4,6,7,8,9,10-hexahydro-7,10-ethanopyrimido[1,2-a]azepine-2-carboxamide], for which, at HIV-integrase, the IC50 was < 0.01 µM and the Ki is 0.001 µM. Further, in assay [1] (Human immunodeficiency virus 1), the EC50 came to 0.002 µM.
In the same order, the values of `O=C(NC12CCC(Cn3c1nc(C(=O)NCc1ccc(F)cc1)c(O)c3=O)OC2)OCc1ccccc1` (stereo not shown) [Example 219, Benzyl (2-((4-fluorobenzyl)carbamoyl)-3-hydroxy-4-oxo-6,7,8,9-tetrahydro-7,10-(epoxymethano)pyrimido[1,2-a]azepin-10(4H)-yl)carbamate] are 0.01 to 0.1 µM, 0.012 µM and 0.037 µM.
In the same order, the values of `Cc1cc(CNC(=O)c2nc3n(c(=O)c2O)CC2CCC3(NC(=O)c3cccnn3)CC2)ccc1F` [Example 314, 7,10-Ethanopyrimido[1,2-a]azepine-2-carboxamide, N-[(4-fluoro-3-methylphenyl)methyl]-4,6,7,8,9,10-hexahydro-3-hydroxy-4-oxo-10-[(3-pyridazinylcarbonyl)amino]-] are < 0.01 µM, < 0.001 µM and < 0.001 µM.
In the case of `O=C(NC12CCC(CC1)Cn1c2nc(C(=O)NCc2ccc(F)cc2)c(O)c1=O)C(=O)c1c[nH]c2c(-n3cncn3)ncc(F)c12` [Example 48, N-(4-Fluorobenzyl)-10-(((4-fluoro-7-(1H-1,2,4-triazol-1-yl)-1H-pyrrolo[2,3-c]pyridin-3-yl)(oxo)acetyl)amino)-3-hydroxy-4-oxo-4,6,7,8,9,10-hexahydro-7,10-ethanopyrimido[1,2-a]azepine-2-carboxamide], at HIV-integrase, the IC50 is < 0.01 µM and the affinity, expressed as Ki, was 0.001 µM. Also, the EC50 in assay [1] (Human immunodeficiency virus 1) is 0.004 µM.
On the same counts, the results for `CN(C)C(=O)C(=O)NC12CCC(CC1)Cn1c2nc(C(=O)N[C@H]2C[C@@H]2c2ccccc2)c(O)c1=O` [Example 357] are < 0.01 µM, 0.009 µM and 0.006 µM.
In the same order, the values of `COc1ccc(CNC(=O)c2nc3n(c(=O)c2O)CC2CCC3(NC(=O)C(=O)N(C)C)CC2)c(OC)c1` [Example 382] are 0.01 to 0.1 µM, 0.011 µM and 0.016 µM.
Turning to `NC12CCC(CC1)Cn1c2nc(C(=O)NCc2ccc(F)cc2)c(O)c1=O` [Example 19, 10-Amino-N-(4-fluorobenzyl)-3-hydroxy-4-oxo-4,6,7,8,9,10-hexahydro-7,10-ethanopyrimido[1,2-a]azepine-2-carboxamide], on HIV-integrase, the IC50 was > 0.1 µM and the Ki turned out to be 0.126 µM. For the same compound, in assay [1] (Human immunodeficiency virus 1), the EC50 was determined as 0.302 µM.
On the same counts, the results for `Cc1cc(CNC(=O)c2nc3n(c(=O)c2O)CC2CCC3(NS(=O)(=O)C3CC3)CC2)ccc1F` [Example 42, 10-((Cyclopropylsulfonyl)amino)-N-(4-fluoro-3-methylbenzyl)-3-hydroxy-4-oxo-4,6,7,8,9,10-hexahydro-7,10-ethanopyrimido[1,2-a]azepine-2-carboxamide] are < 0.01 µM, 0.001 µM and 0.001 µM.
On the same counts, the results for `O=C(NCc1ccc(F)cc1)c1nc2n(c(=O)c1O)CC1CCC2(NS(=O)(=O)C2CC2)CC1` [Example 41, 10-((Cyclopropylsulfonyl)amino)-N-(4-fluorobenzyl)-3-hydroxy-4-oxo-4,6,7,8,9,10-hexahydro-7,10-ethanopyrimido[1,2-a]azepine-2-carboxamide] are < 0.01 µM, 0.001 µM and < 0.001 µM.
In the same order, the values of `CC(=O)NC12CCC(CC1)Cn1c2nc(C(=O)NCc2ccc(F)cc2-n2ncnc2C)c(O)c1=O` [Example 38, 10-(Acetylamino)-N-(4-fluoro-2-(5-methyl-1H-1,2,4-triazol-1-yl)benzyl)-3-hydroxy-4-oxo-4,6,7,8,9,10-hexahydro-7,10-ethanopyrimido[1,2-a]azepine-2-carboxamide] are < 0.01 µM, 0.009 µM and 0.037 µM.
With `CN(C)C(=O)C(=O)N(C)C12CCC(CCn3c1nc(C(=O)NCc1ccc(F)cc1)c(O)c3=O)C2` (stereo not shown) [Example 211, Ethanediamide, N-[2-[[[(4-fluorophenyl)methyl]amino]carbonyl]-7,8,9,10-tetrahydro-3-hydroxy-4-oxo-8,11-methano-4H-pyrimido[1,2-a]azocin-11(6H)-yl]-N,N′,N′-trimethyl-], the IC50 at HIV-integrase is < 0.01 µM.
On the same count and under the same terms, under `Cc1cc(CNC(=O)c2nc3n(c(=O)c2O)CC2CCC3(NC(=O)C(C)(C)n3cccn3)CC2)ccc1F` [Example 281, 7,10-Ethanopyrimido[1,2-a]azepine-2-carboxamide, N-[(4-fluoro-3-methylphenyl)methyl]-4,6,7,8,9,10-hexahydro-3-hydroxy-10-[[2-methyl-1-oxo-2-(1H-pyrazol-1-yl)propyl]amino]-4-oxo-] stands < 0.01 µM; under `Cc1cc(C(=O)NC23CCC(CC2)Cn2c3nc(C(=O)NCc3ccc(F)cc3)c(O)c2=O)nn1C(C)(C)C` [Example 240], < 0.01 µM; under `Cc1cc(CNC(=O)c2nc3n(c(=O)c2O)CCC2CCC3(NC(=O)C(=O)N3CC[C@@H](F)C3)C2)ccc1F` (stereo partly drawn) [Example 216, 8,11-Methano-4H-pyrimido[1,2-a]azocine-2-carboxamide, N-[(4-fluoro-3-methylphenyl)methyl]-11-[[2-[(3R)-3-fluoro-1-pyrrolidinyl]-1,2-dioxoethyl]amino]-6,7,8,9,10,11-hexahydro-3-hydroxy-4-oxo-], < 0.01 µM.
Still for that read-out and setting: under `CN(C)C(=O)C(=O)NC12CCC(CC1)Cn1c2nc(C(=O)NCc2cccc(F)c2)c(O)c1=O` [Example 371] stands < 0.01 µM; under `Cc1cc(CNC(=O)c2nc3n(c(=O)c2O)CC2CCC3(NC(=O)Nc3cccnc3)CC2)ccc1F` [Example 326, 7,10-Ethanopyrimido[1,2-a]azepine-2-carboxamide, N-[(4-fluoro-3-methylphenyl)methyl]-4,6,7,8,9,10-hexahydro-3-hydroxy-4-oxo-10-[[(3-pyridinylamino)carbonyl]amino]-], < 0.01 µM; under `CN(C)C(=O)C(=O)NC12CCC(CC1)Cn1c2nc(C(=O)NCCc2ccc(F)cc2)c(O)c1=O` [Example 358], 0.01 to 0.1 µM.
